A word on the Kd: it is the equilibrium constant for the complex coming apart. Read a low Kd as higher affinity.

The assay addresses T1, human 4lg B7-H3 (Homo sapiens, UniProt Q5ZPR3).
T1 sequence (Q5ZPR3 29-534): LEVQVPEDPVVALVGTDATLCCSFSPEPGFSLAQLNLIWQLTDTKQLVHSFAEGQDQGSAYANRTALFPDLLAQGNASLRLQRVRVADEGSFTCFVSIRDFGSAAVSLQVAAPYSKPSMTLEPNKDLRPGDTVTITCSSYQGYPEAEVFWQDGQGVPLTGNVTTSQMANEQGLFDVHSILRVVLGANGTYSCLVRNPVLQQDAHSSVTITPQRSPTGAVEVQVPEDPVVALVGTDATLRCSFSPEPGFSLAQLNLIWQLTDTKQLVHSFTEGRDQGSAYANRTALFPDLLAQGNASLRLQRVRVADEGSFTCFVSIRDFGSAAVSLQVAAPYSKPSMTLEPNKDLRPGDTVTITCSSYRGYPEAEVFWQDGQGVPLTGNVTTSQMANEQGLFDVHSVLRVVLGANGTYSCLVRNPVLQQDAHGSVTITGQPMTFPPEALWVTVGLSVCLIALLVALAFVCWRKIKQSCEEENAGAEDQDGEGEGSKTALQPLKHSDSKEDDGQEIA
Kind of assay: Affinity determination by surface plasmon resonance (SPR) to 4Ig B7-H3. The following applies: 4Ig B7-H3.

Where [1] appears, read: SPR KD—37° C., 37° C. flow cell temperature.

Each structure is given as a SMILES string. Starred links: 1 amine or outer side, 2 acyl side, 3 side chain; linkers in the order of their positions; H or OH if unused. Positions of bridges follow the written chain, without caps; N, C: chain ends. Non-standard residues stand in square brackets, D forms with d. Residues, ends and D or L forms follow the SMILES beside them. Groups on a side chain read outwards from the residue. *: point of attachment. X6 = CSCC[C@H](NC(=O)c1ccc(CNC(=O)CN2CCN(CC(=O)O)CCN(CC(=O)O)CCN(CC(=O)O)CC2)cc1)C(=O)N[C@H](C(=O)N[C@@H](CCCCN*)C(=O)O)C(C)C; Ala(1-CH2CO2H-4-piperidyl) = N[C@@H](CC1CCN(CC(=O)O)CC1)C(=O)O; Ala(piperidin-4-yl) = O=C([C@H](CC1CCN([*:3])CC1)N[*:1])[*:2]; DOTA = O=C(O)CN1CCN(CC(=O)O)CCN(CC(=O)*)CCN(CC(=O)O)CC1; Phe(4-COOH) = N[C@@H](Cc1ccc(C(=O)O)cc1)C(=O)O; Trp(5-F) = N[C@@H](Cc1c[nH]c2ccc(F)cc12)C(=O)O; X1 = C[C@@H](c1ccccc1)[C@H](N[*:1])C(=O)[*:2]; Ala(4-THP) = N[C@@H](CC1CCOCC1)C(=O)O; Val(3-OH) = CC(C)(O)[C@H](N)C(=O)O; Aad = N[C@@H](CCCC(=O)O)C(=O)O; Tle = CC(C)(C)[C@H](N)C(=O)O; hLeu = CC(C)CC[C@H](N)C(=O)O; αMeS = C[C@](N)(CO)C(=O)O; AEA = NCCOCC(=O)O Where only a bound is given, the exact number is not on record here.

In turn, `CC(C)CC[C@H](NC(=O)COCCNC(=O)[C@H](CCC(=O)O)NC(=O)CN1CCN(CC(=O)O)CCN(CC(=O)O)CCN(CC(=O)O)CC1)C(=O)N[C@@H](Cc1ccc(O)cc1)C(=O)N[C@H]1CSSC[C@@H](C(=O)N[C@@H](Cc2c[nH]c3ccc(F)cc23)C(=O)N[C@@H](Cc2ccccc2)C(=O)N[C@H](C(N)=O)C(C)(C)O)NC(=O)[C@H](Cc2ccc(O)cc2)NC(=O)[C@H](C(C)C)NC(=O)[C@H](CC(=O)O)NC(=O)[C@H](CC2CCOCC2)NC(=O)[C@H](CCCCN)NC(=O)CNC(=O)[C@H](C(C)(C)C)NC1=O` [compound 392, DOTA-Glu-AEA-hLeu-Y-C-Tbg-G-K-ThpA-D-V-Y-C-5FW-F-hydroxyVal-CONH2] ({DOTA}-E[AEA][hLeu]YC[Tle]GK[Ala(4-THP)]DVYC[Trp(5-F)]F[Val(3-OH)]-NH2; disulfide 5-13) yielded a Kd under setting [1] of 1 to 10 nM.

For the molecule `CC[C@H](C)[C@@H]1NC(=O)[C@@H](NC(=O)[C@H](Cc2ccc(O)cc2)NC(=O)[C@H](CCC(C)C)NC(C)=O)CSSC[C@@H](C(=O)N[C@@H](Cc2c[nH]c3ccc(F)cc23)C(=O)N[C@@H](Cc2ccccc2)C(=O)N[C@H](C(=O)O)C(C)(C)O)NC(=O)[C@H](Cc2ccc(O)cc2)NC(=O)[C@H](C(C)C)NC(=O)[C@H](CC(=O)O)NC(=O)[C@H](CC2CCN(CC(=O)O)CC2)NC(=O)[C@H](CCCCNC(=O)CN2CCN(CC(=O)O)CCN(CC(=O)O)CCN(CC(=O)O)CC2)NC(=O)CNC1=O` [compound 324, Ac-hLeu-Y-C-Ile-G-Lys(DOTA)-Pip(CH2COOH)Ala-D-V-Y-C-5FW-F-hydroxyVal-COOH] (Ac-[hLeu]YCIGK(DOTA)[Ala(1-CH2CO2H-4-piperidyl)]DVYC[Trp(5-F)]F[Val(3-OH)]-OH; disulfide 3-11), the dissociation constant Kd under setting [1] is 10 to 100 nM. Turning to `CC(=O)N[C@@H](CCC(C)C)C(=O)N[C@@H](Cc1ccc(O)cc1)C(=O)N[C@H]1CSSC[C@@H](C(=O)N[C@@H](Cc2c[nH]c3ccc(F)cc23)C(=O)N[C@@H](Cc2ccccc2)C(=O)N2CCC[C@H]2C(=O)N[C@H](CCCCNC(=O)CN2CCN(CC(=O)O)CCN(CC(=O)O)CCN(CC(=O)O)CC2)C(N)=O)NC(=O)[C@H](Cc2ccc(O)cc2)NC(=O)[C@H](C(C)C)NC(=O)[C@H](CC(=O)O)NC(=O)[C@H](Cc2ccc(C(=O)O)cc2)NC(=O)[C@H](CC2CCN(CC(=O)O)CC2)NC(=O)CNC(=O)[C@H](C(C)C)NC1=O` [compound 320, Ac-hLeu-Y-C-V-G-[Pip(CH2CO2H)Ala]-4COOHPhe-D-V-Y-C-5FW-F-Pro-dLys(DOTA)-CONH2] (Ac-[hLeu]YCVG[Ala(1-CH2CO2H-4-piperidyl)][Phe(4-COOH)]DVYC[Trp(5-F)]FP[dK](DOTA)-NH2; disulfide 3-11), the equilibrium dissociation constant (Kd) under setting [1] is 1 to 10 nM.

For `CC(=O)N[C@@H](CCC(C)C)C(=O)N[C@@H](Cc1ccc(O)cc1)C(=O)N[C@H]1CSSC[C@@H](C(=O)N[C@@H](Cc2c[nH]c3ccc(F)cc23)C(=O)N[C@@H](Cc2ccccc2)C(=O)N[C@H](C(=O)N[C@H](CCC(=O)O)C(N)=O)C(C)(C)O)NC(=O)[C@H](Cc2ccc(O)cc2)NC(=O)[C@H](C(C)C)NC(=O)[C@H](CC(=O)O)NC(=O)[C@H](CC2CCN(C(=O)CN3CCN(CC(=O)O)CCN(CC(=O)O)CCN(CC(=O)O)CC3)CC2)NC(=O)[C@H](CC2CCNCC2)NC(=O)CNC(=O)[C@H](C(C)(C)C)NC1=O` [compound 447, Ac-hLeu-Y-C-Tbg-G-PipAla-Pip(DOTA)Ala-D-V-Y-C-5FW-F-hydroxyVal-dGlu-CONH2] (Ac-[hLeu]YC[Tle]G[Ala(piperidin-4-yl)][Ala(piperidin-4-yl)](DOTA)DVYC[Trp(5-F)]F[Val(3-OH)][dE]-NH2; disulfide 3-11), the dissociation constant Kd under setting [1] was under 1 nM.

In turn, `CC(=O)N[C@@H](CCC(C)C)C(=O)N[C@@H](Cc1ccc(O)cc1)C(=O)N[C@H]1CSSC[C@@H](C(=O)N[C@@H](Cc2c[nH]c3ccc(F)cc23)C(=O)N[C@@H](Cc2ccccc2)C(=O)N[C@H](C(=O)O)[C@@H](C)O)NC(=O)[C@H](Cc2ccc(O)cc2)NC(=O)[C@H](C(C)C)NC(=O)[C@H](CC(=O)O)NC(=O)[C@H](CC2CCOCC2)NC(=O)[C@H](CCCCNC(=O)CN2CCN(CC(=O)O)CCN(CC(=O)O)CCN(CC(=O)O)CC2)NC(=O)CNC(=O)[C@H](C(C)(C)C)NC1=O` [compound 328, Ac-hLeu-Y-C-Tbg-G-Lys(DOTA)-ThpA-D-V-Y-C-5FW-F-Thr-COOH] (Ac-[hLeu]YC[Tle]GK(DOTA)[Ala(4-THP)]DVYC[Trp(5-F)]FT-OH; disulfide 3-11) gave a dissociation constant Kd under setting [1] of 10 to 100 nM. In turn, `CC(=O)N[C@@H](CCC(C)C)C(=O)N[C@@H](Cc1ccc(O)cc1)C(=O)N[C@H]1CSSC[C@@H](C(=O)N[C@@H](Cc2c[nH]c3ccc(F)cc23)C(=O)N[C@@H](Cc2ccccc2)C(=O)N[C@@](C)(CO)C(=O)N[C@H](CCCCNC(=O)CN2CCN(CC(=O)O)CCN(CC(=O)O)CCN(CC(=O)O)CC2)C(N)=O)NC(=O)[C@H](Cc2ccc(O)cc2)NC(=O)[C@H](C(C)C)NC(=O)[C@H](CC(=O)O)NC(=O)[C@H](Cc2ccc(O)cc2)NC(=O)[C@H](CCCCN)NC(=O)CNC(=O)[C@H](C(C)C)NC1=O` [compound 147, Ac-hLeu-Y-C-V-G-K-Y-D-V-Y-C-5FW-F-aMeSer-dLys(DOTA)-CONH2] (Ac-[hLeu]YCVGKYDVYC[Trp(5-F)]F[αMeS][dK](DOTA)-NH2; disulfide 3-11) returned a Kd (SPR KD—25° C., 25° C. flow cell temperature) of 1 to 10 nM.

Turning to `CC(=O)N[C@@H](CCC(C)C)C(=O)N[C@@H](Cc1ccc(O)cc1)C(=O)N[C@H]1CSSC[C@@H](C(=O)N[C@@H](Cc2c[nH]c3ccc(F)cc23)C(=O)N[C@H](C(=O)N[C@H](C(=O)N[C@H](CCCCNC(=O)[C@H](CCCC(=O)O)NC(=O)CN2CCN(CC(=O)O)CCN(CC(=O)O)CCN(CC(=O)O)CC2)C(=O)O)C(C)(C)O)[C@@H](C)c2ccccc2)NC(=O)[C@H](Cc2ccc(O)cc2)NC(=O)[C@H](C(C)C)NC(=O)[C@H](CC(=O)O)NC(=O)[C@H](CC2CCOCC2)NC(=O)[C@H](CC2CCN(CC(=O)O)CC2)NC(=O)CNC(=O)[C@H](C(C)(C)C)NC1=O` [compound 525, Ac-hLeu-Y-C-Tbg-G-Pip(CH2COOH)Ala-ThpA-D-V-Y-C-5FW-[(2S, 3S)beta-Me-Phe]-hydroxyVal-dLys(hGlu-DOTA)-COOH] (Ac-[hLeu]YC[Tle]G[Ala(1-CH2CO2H-4-piperidyl)][Ala(4-THP)]DVYC[Trp(5-F)][X1][Val(3-OH)][dK]([Aad-DOTA])-OH; disulfide 3-11), the equilibrium dissociation constant (Kd) under setting [1] is under 1 nM.

In the case of `CSCC[C@H](NC(=O)c1ccc(CNC(=O)CN2CCN(CC(=O)O)CCN(CC(=O)O)CCN(CC(=O)O)CC2)cc1)C(=O)N[C@H](C(=O)N[C@@H](CCCCNC(=O)[C@@H](NC(=O)[C@H](Cc1ccccc1)NC(=O)[C@H](Cc1c[nH]c2ccc(F)cc12)NC(=O)[C@@H]1CSSC[C@H](NC(=O)[C@H](Cc2ccc(O)cc2)NC(=O)[C@H](CCC(C)C)NC(C)=O)C(=O)N[C@@H](C(C)(C)C)C(=O)NCC(=O)N[C@@H](CC2CCNCC2)C(=O)N[C@@H](CC2CCOCC2)C(=O)N[C@@H](CC(=O)O)C(=O)N[C@@H](C(C)C)C(=O)N[C@@H](Cc2ccc(O)cc2)C(=O)N1)C(C)(C)O)C(=O)O)C(C)C` [Cpd #482, Ac-hLeu-Y-C-Tbg-G-PipAla-ThpA-D-V-Y-C-5FW-F-hydroxyVal-εLys(Val-Met-AmBz-DOTA)-COOH] (Ac-[hLeu]YC[Tle]G[Ala(piperidin-4-yl)][Ala(4-THP)]DVYC[Trp(5-F)]F[Val(3-OH)]-X6; disulfide 3-11), under setting [1], the dissociation constant (Kd) was in the range of 1 to 10 nM.
